Measurements published in US20230271933A1, “HETEROCYCLIC IMMUNOMODULATOR” (Beijing Innocare Pharma Tech Co., Ltd., priority 2020, published 2023).

Target: hERG potassium ion channel (Homo sapiens, UniProt Q12809)
Assay: Blockade of the hERG potassium ion channel (whole cell patch clamp)
Assay type: cell-based
Settings: HEK293 cells stably overexpressing hERG, pH 7.4, tail current, read-out: The percentage of the inhibition to the hERG current at the solubility of 3 μM (n = 2)
Description: The effect of the compound of the present invention on possible arrhythmias was assessed by determining the blockade of the hERG potassium ion channel.
The experiment method was summarized as follows: • Extracellular fluid: 140 mM NaCl, 3.5 mM KCl, 1 mM MgCl2, 2 mM CaCl2, 10 mM D-glucose, 10 mM HEPES, 1.25 mM NaH2PO4, pH=7.4. • Electrode internal solution: 20 mM KCl, 115 mM K-aspartate, 1 mM MgCl2, 5 mM EGTA, 10 mM HEPES, 2 mM Na2-ATP, pH=7.2. • Compound solution: the compound to be tested was dissolved in DMSO and prepared into a stock solution having a concentration of 10 mM, then diluted into the concentration of 3 mM with DMSO, and then diluted into a solution having a concentration of 3 μM with the extracellular solution for subsequent use. • Cell culture: the HEK293 cell line with the stable hERG potassium channel overexpression (Creacell, Cat. No. A-0320) was cultured in a DMEM medium (Gibco, Cat. No. 11995-065) containing […] (Gibco, Cat. No. 1428478) and 0.8 mg/mL G418 (Amresco, Cat. No. E859-5G) at the culture temperature of 37° C. under the carbon dioxide concentration of […]. The spent medium was removed and the cells were washed once with PBS (Gibco, Cat. No. 1009-141). Then 1 mL TrypLE™ Express solution (Gibco, Cat. No. 12604021) was added and the cells were incubated at 37° C. […]. When the cells were detached from the bottom of the dish, 5 mL of complete medium preheated at 37° C. was added. The cell suspension was transferred to a sterile centrifuge tube and centrifuged at 1000 rpm for 5 minutes before cell collection. Cells were inoculated in 6 cm cell culture dishes at the cell inoculation volume of 2.5*10^5 per dish (final volume: 5 mL). Before the patch clamp detection experiment, 3*10^3 cells were plated on the cover slips, cultured in 24-well plates (final volume: 500 μL), and detected 18 hours later. • Voltage stimulation protocol by recording the whole-cell hERG potassium current with the whole cell patch clamp: after forming a whole-cell seal, the cell membrane voltage was clamped at −80 mV. The clamping voltage was depolarized from −80 mV to −50 mV and maintained for 0.5 seconds (as leakage current detection), then stepped to 30 mV and maintained for 2.5 seconds, then quickly returned to −50 mV and maintained for 4 seconds to excite the hERG channel tail current (Peak tail current), the hERG potassium current was recorded every other 10 seconds. Experiment data were collected with EPC-10 amplifier (HEKA) and stored in PatchMaster (HEKA v2x73) software. • Determination: A capillary glass tube (Sutter Instruments) was drawn into a recording electrode with a microelectrode drawing instrument (Sutter Instruments). The cell-loaded cover slip was removed from the 24-well plate placed in the incubator and then placed under an inverted microscope. […] In the whole-cell recording mode, the slow capacitance compensation was performed and the membrane capacitance and the series resistance were recorded, during which the leakage compensation was not applied. After the hERG tail current recorded with the whole cell was stabilized for 3-5 minutes, 8 mL of the compound-free extracellular fluid (blank control) and 8 mL of 3 μM solution of the compound to be tested were sequentially flowed through the recording bath with the gravity perfusion to act on the cells for 5 minutes (or to the current stabilization). The current detected for each cell in the compound-free extracellular fluid was served as its own control. […]

hERG potassium ion channel, sequence (Q12809 whole entry): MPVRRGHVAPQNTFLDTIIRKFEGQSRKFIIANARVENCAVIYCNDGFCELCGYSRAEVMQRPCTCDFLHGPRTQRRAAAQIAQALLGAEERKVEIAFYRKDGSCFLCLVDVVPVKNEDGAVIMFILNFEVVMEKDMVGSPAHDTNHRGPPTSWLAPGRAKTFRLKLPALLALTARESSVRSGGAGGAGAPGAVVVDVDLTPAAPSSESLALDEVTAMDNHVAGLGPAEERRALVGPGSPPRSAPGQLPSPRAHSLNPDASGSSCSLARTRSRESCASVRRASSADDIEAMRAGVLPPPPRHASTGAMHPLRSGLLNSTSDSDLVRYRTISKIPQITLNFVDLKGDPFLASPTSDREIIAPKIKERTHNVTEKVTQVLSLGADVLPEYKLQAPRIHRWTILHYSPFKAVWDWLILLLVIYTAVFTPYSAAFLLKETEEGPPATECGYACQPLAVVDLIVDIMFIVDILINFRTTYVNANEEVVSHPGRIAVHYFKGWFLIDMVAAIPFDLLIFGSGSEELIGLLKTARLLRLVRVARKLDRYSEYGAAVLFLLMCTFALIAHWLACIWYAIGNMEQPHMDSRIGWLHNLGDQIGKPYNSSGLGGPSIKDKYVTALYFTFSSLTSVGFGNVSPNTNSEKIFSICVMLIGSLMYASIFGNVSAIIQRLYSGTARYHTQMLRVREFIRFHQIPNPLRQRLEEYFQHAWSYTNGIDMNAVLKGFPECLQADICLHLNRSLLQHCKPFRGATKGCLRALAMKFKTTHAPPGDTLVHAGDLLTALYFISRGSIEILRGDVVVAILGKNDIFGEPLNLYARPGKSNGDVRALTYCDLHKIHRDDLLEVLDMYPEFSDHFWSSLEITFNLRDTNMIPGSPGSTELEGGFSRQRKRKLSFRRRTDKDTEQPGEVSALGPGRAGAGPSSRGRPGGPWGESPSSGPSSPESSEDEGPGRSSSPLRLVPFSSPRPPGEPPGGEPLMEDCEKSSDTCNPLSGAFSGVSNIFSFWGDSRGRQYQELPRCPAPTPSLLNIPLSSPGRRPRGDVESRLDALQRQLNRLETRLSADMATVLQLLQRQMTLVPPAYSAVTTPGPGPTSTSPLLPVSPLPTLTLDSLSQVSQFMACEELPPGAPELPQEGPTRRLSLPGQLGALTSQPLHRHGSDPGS

With `N#Cc1ccc(N2CCN(Cc3ccc(COc4cccc5c4CN([C@H]4CCC(=O)NC4=O)C5=O)cc3)CC2)c(F)c1` [CC-92480, reference compound] the inhibition at 5 min, 3 µM was 76%.
